The record followed here is patent publication US11992560B2, “Electrospun fibers for a local release of an anti-inflammatory drug and a promyelinating drug” (ALMA MATER STUDIORUM—UNIVERSITÀ DI BOLOGNA, priority 2018, dated 2024).

This assay concerns LPS stimulated RAW 264.7 cells. Nature of the assay: In vitro efficacy: gene expression (qPCR) in LPS stimulated RAW cells treated with conditioned medium. The format is cell-based, murine. Particulars: conditioned medium 24 h, LPS 500 ng/ml; respect to sc LPS or ibsc. The protocol:
The murine macrophage cell line RAW 264.7 was purchased from the American Type Culture Collection (ATCC® TIB-71™). Cells were grown at 37° C. in DMEM high glucose medium (Thermo Fisher Scientific) supplemented with 10% heat-inactivated fetal bovine serum (FBS—Thermo Fisher Scientific), 1% penicillin/streptomycin (100 U ml-1/100 μg ml-1) (Thermo Fisher Scientific), in a humidified incubator of 5% CO2. When 70-80% confluency was reached, cells were detached mechanically with the scraper and subcultured in 75 cm2 flasks.
In order to evaluate the bioactivity of ibuprofen and T3 released from electrospun PLLA fibres conditioned medium was prepared ad described below. […] Three samples/group were analysed.
At the end of the treatments total RNA isolation was performed with the RNeasy Micro kit (Qiagen) following the manufacturer's instructions. Total RNA was eluted in RNase-free water and concentration estimated through absorbance values at 260, 280 and 320 nm (Nanodrop 2000 spectrophotometer, Thermo Scientific). […] Semi-quantitative real-time PCR was performed using the CFX96 real-time PCR system (Bio-Rad). […] Relative quantification of the target genes expression was calculated using the comparative threshold method 2^(—ΔΔCT). […]
A general note: Real-time PCR tracks product formation cycle by cycle.

Take `CC(C)Cc1ccc(C(C)C(=O)O)cc1` (stereo not shown) [SC+IBU, Ibuprofen]: the “TNFα mRNA level (in words)” value was “comparable”.
